{"source": "ChEMBL document CHEMBL1201862", "about": "“PubChem BioAssay data set” (2004)", "experiment_in_all_cases": "NCI anticancer screen, dose series, 48 h", "key": {"DMS-114": {"tested_on": "DMS-114"}, "RXF 631": {"tested_on": "RXF 631"}, "M19-MEL": {"tested_on": "M19-MEL"}, "HOP-18": {"tested_on": "HOP-18"}, "DLD-1": {"tested_on": "DLD-1"}, "LXFL 529": {"tested_on": "LXFL 529"}, "SNB-78": {"tested_on": "SNB-78"}, "XF498": {"tested_on": "XF498"}}, "note": "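Briefly, cells in 96-well plates were exposed to five compound concentrations for 48 h, and endpoints were estimated by linear interpolation. Abbreviation: GI50, concentration required for 50% inhibition of growth.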 Activity calls are given as the source filed them. No stated cut-off is given here; in the data, active = GI50 up to about 1.1 µM and inactive = higher."}
{"smiles": "NC(=O)CC(N/C=C1/N=C(c2ccccc2)OC1=O)C(=O)O", "note": "(stereo unspecified)", "values": [{"measurement": "GI50", "setting": "DMS-114", "value": "> 100 µM (inactive)"}, {"measurement": "GI50", "setting": "RXF 631", "value": "> 100 µM (inactive)"}, {"measurement": "GI50", "setting": "M19-MEL", "value": "> 100 µM (inactive)"}, {"measurement": "GI50", "setting": "HOP-18", "value": "> 100 µM (inactive)"}, {"measurement": "GI50", "setting": "DLD-1", "value": "> 100 µM (inactive)"}, {"measurement": "GI50", "setting": "LXFL 529", "value": "> 100 µM (inactive)"}, {"measurement": "GI50", "setting": "SNB-78", "value": "> 100 µM (inactive)"}]}
{"smiles": "COc1cccc2c1C(=O)c1c(O)c3c(c(O)c1C2=O)C[C@@](O)(C(C)=O)C[C@@H]3OC1CC([N+]([O-])(Cc2ccccc2)Cc2ccccc2)C(O)C(C)O1", "note": "(stereo partly specified)", "values": [{"measurement": "GI50", "setting": "DMS-114", "value": "1.33 µM (inactive)"}, {"measurement": "GI50", "setting": "RXF 631", "value": "0.428 µM (active)"}, {"measurement": "GI50", "setting": "XF498", "value": "1.23 µM (inactive)"}, {"measurement": "GI50", "setting": "M19-MEL", "value": "1.43 µM (inactive)"}, {"measurement": "GI50", "setting": "HOP-18", "value": "1.58 µM (inactive)"}, {"measurement": "GI50", "setting": "DLD-1", "value": "1.29 µM (inactive)"}, {"measurement": "GI50", "setting": "LXFL 529", "value": "1.11 µM (active)"}]}
{"smiles": "CN(CCCCN)c1ccc2c(=O)[nH][nH]c(=O)c2c1", "values": [{"measurement": "GI50", "setting": "DMS-114", "value": "> 100 µM (inactive)"}, {"measurement": "GI50", "setting": "RXF 631", "value": "> 10 µM (inactive)"}, {"measurement": "GI50", "setting": "XF498", "value": "> 100 µM (inactive)"}, {"measurement": "GI50", "setting": "HOP-18", "value": "> 100 µM (inactive)"}, {"measurement": "GI50", "setting": "DLD-1", "value": "> 100 µM (inactive)"}, {"measurement": "GI50", "setting": "LXFL 529", "value": "> 100 µM (inactive)"}, {"measurement": "GI50", "setting": "SNB-78", "value": "> 100 µM (inactive)"}]}
{"smiles": "Cc1cc(C)c(C2[C@H]3C(=O)N(c4ccc(Cc5ccc(N6C(=O)[C@@H]7ON(c8ccccc8)C(c8c(C)cc(C)cc8C)[C@@H]7C6=O)cc5)cc4)C(=O)[C@H]3ON2c2ccccc2)c(C)c1", "note": "(stereo partly specified)", "values": [{"measurement": "GI50", "setting": "DMS-114", "value": "> 100 µM (inactive)"}, {"measurement": "GI50", "setting": "RXF 631", "value": "> 100 µM (inactive)"}, {"measurement": "GI50", "setting": "M19-MEL", "value": "> 100 µM (inactive)"}, {"measurement": "GI50", "setting": "HOP-18", "value": "> 100 µM (inactive)"}, {"measurement": "GI50", "setting": "DLD-1", "value": "> 100 µM (inactive)"}, {"measurement": "GI50", "setting": "LXFL 529", "value": "> 100 µM (inactive)"}, {"measurement": "GI50", "setting": "SNB-78", "value": "> 100 µM (inactive)"}]}
{"smiles": "Cc1cc(C)nc(NS(=O)(=O)c2ccc(NC(=O)c3cccc4c(=O)c5ccccc5[nH]c34)cc2)n1", "values": [{"measurement": "GI50", "setting": "DMS-114", "value": "18.4 µM (inactive)"}, {"measurement": "GI50", "setting": "RXF 631", "value": "60 µM (inactive)"}, {"measurement": "GI50", "setting": "XF498", "value": "13.5 µM (inactive)"}, {"measurement": "GI50", "setting": "HOP-18", "value": "18.5 µM (inactive)"}, {"measurement": "GI50", "setting": "DLD-1", "value": "20.7 µM (inactive)"}, {"measurement": "GI50", "setting": "LXFL 529", "value": "14.3 µM (inactive)"}, {"measurement": "GI50", "setting": "SNB-78", "value": "21.3 µM (inactive)"}]}
{"smiles": "COc1ccc(/C=C2\\C(=O)N(NC(C)=O)c3ccccc32)cc1", "values": [{"measurement": "GI50", "setting": "DMS-114", "value": "77.3 µM (inactive)"}, {"measurement": "GI50", "setting": "RXF 631", "value": "> 100 µM (inactive)"}, {"measurement": "GI50", "setting": "XF498", "value": "> 100 µM (inactive)"}, {"measurement": "GI50", "setting": "M19-MEL", "value": "> 100 µM (inactive)"}, {"measurement": "GI50", "setting": "HOP-18", "value": "> 100 µM (inactive)"}, {"measurement": "GI50", "setting": "DLD-1", "value": "68.4 µM (inactive)"}, {"measurement": "GI50", "setting": "SNB-78", "value": "> 100 µM (inactive)"}]}
{"smiles": "COc1cc([C@@H]2c3cc4c(cc3C(N)C3COC(=O)[C@@H]32)OCO4)cc(OC)c1O", "note": "(stereo partly specified)", "values": [{"measurement": "GI50", "setting": "DMS-114", "value": "0.245 µM (active)"}, {"measurement": "GI50", "setting": "RXF 631", "value": "0.178 µM (active)"}, {"measurement": "GI50", "setting": "M19-MEL", "value": "0.334 µM (active)"}, {"measurement": "GI50", "setting": "HOP-18", "value": "> 100 µM (inactive)"}, {"measurement": "GI50", "setting": "DLD-1", "value": "0.377 µM (active)"}, {"measurement": "GI50", "setting": "LXFL 529", "value": "0.117 µM (active)"}]}
{"smiles": "Cc1nc(N)sc1C(=O)/C=C\\c1ccc2c(c1)OCO2", "values": [{"measurement": "GI50", "setting": "DMS-114", "value": "> 100 µM (inactive)"}, {"measurement": "GI50", "setting": "RXF 631", "value": "> 100 µM (inactive)"}, {"measurement": "GI50", "setting": "XF498", "value": "> 100 µM (inactive)"}, {"measurement": "GI50", "setting": "M19-MEL", "value": "> 100 µM (inactive)"}, {"measurement": "GI50", "setting": "HOP-18", "value": "> 100 µM (inactive)"}, {"measurement": "GI50", "setting": "DLD-1", "value": "> 100 µM (inactive)"}, {"measurement": "GI50", "setting": "LXFL 529", "value": "> 100 µM (inactive)"}, {"measurement": "GI50", "setting": "SNB-78", "value": "> 100 µM (inactive)"}]}
